Assay results reported in patent publication US9012625B2, “Method for the synthesis of a trisaccharide” (Glycom A/S, priority 2009, dated 2015).

Experiment: solubility in hot methanol
Type: physicochemical
Conditions: 3 volumes

CC1O[C@@H](OC2C(O)[C@@H](O)C(CO)O[C@H]2O[C@@H]2C(CO)OC(O)C(O)C2O)C(OCc2ccccc2)C(OCc2ccccc2)[C@@H]1OCc1ccccc1 (stereo partly drawn) [anhydrous derivative, O-(2,3,4-tri-O-benzyl-α-L-fucopyranosyl)-(1→2)-O-β-D-galactopyranosyl-(1→4)-D-glucose]
solubility in hot methanol: excellent solubility
